One compound from patent US20250302816A1, “DISRUPTION OF EPITHELIAL BARRIERS FOR MOLECULAR DELIVERY ENHANCEMENT OR EXTRACTION OF EXTRACELLULAR FLUIDS” (The University of Nottingham, priority 2022, published 2025) can be followed below.

Structures are written as SMILES.

One data set has as its system ARPE-19 cell layers. Kind of data set: Transwell drug transport across ARPE-19 cell layers with or without 3OC12-HSL. In kind it is cell-based, human. The following applies: 3OC12-HSL 200 μM. The procedure: (§1) FIG. 1: Macromolecular therapeutics transported across ARPE-19 cell layers in the absence and presence of 3OC12-HSL transported into the basolateral chamber over a period of five hours. Permeability experiments were initiated by applying 0.5 ml of the test solutions (250 μg/ml Aflibercept/Bevacizumab/or Doxorubicin diluted in HBSS/HEPES) to the apical side of the cells (donor compartment of the Transwell) with or without 3OC12-HSL (200 μM). Drug permeability was determined by sampling the basolateral solution at regular time intervals. Data points are expressed as means±SEM, derived from three replicates in triplicate. p values of <0.05 were considered statistically significant. *, ** and *** denote p<0.05, p<0.01 and p<0.001, respectively.
Calu-3 cells obtained from American Type Culture Collection, USA were cultured using Dulbecco's Modified Eagle Medium (DMEM) supplemented with penicillin (100 U/mL), streptomycin (0.1 mg/mL), amphotericin (0.25 μg/mL), non-essential amino acids (NEM, 1%) and Fetal Bovine Serum (FBS, 10% v/v, Sigma-Aldrich, UK). The human-derived RPE cell line ARPE-19 was obtained from American Type Culture Collection. Cells were grown in Dulbecco's Modified Eagle Medium: F12 (1:1; Gibco, Invitrogen, Carlsbad, CA), including 10% inactivated fetal bovine serum, 100 units/mL penicillin, 100 μg/mL streptomycin, and 2 mM L-glutamine (Sigma-Aldrich). Caco-2 cells were grown in complete culture medium (DMEM supplemented with 17% FBS and 1% antibiotic-antimycotic solution). All cells were kept in a water-jacketed incubator (model 3546, Forma Scientific, Inc., Marietta, OH, USA) maintained at 37° C. and an atmosphere of humidified air with 5% CO2. Medium was replaced every other day until cells reached the 80-90% confluence desired for re-plating or culturing mature, polarised barrier models.
When confluent, cells were seeded on Transwell® filters (12 mm diameter, 0.4 μm pore size; Corning Life Sciences, Holland) at 10^5 cells/cm^2. […]
(§2) Three polarised epithelial in-vitro tissue models, including lung epithelium (Calu-3), retinal pigment epithelium (ARPE-19) and intestinal epithelial (Caco-2) were used to study the efficiency of 200 μM 3OC12-HSL as a paracellular permeability enhancer for three different drugs: bevacizumab, aflibercept and doxorubicin (applied concentrations 250 μg/mL). The amount of drugs transported was determined via the conversion of fluorescence intensity to amount (μg or ng), using calibration curves constructed via serial standard dilutions. […]
(§3) Permeability experiments were initiated by applying 0.5 mL of the test solutions to the apical side of the cells (donor compartment of the Transwell®). […] Drug permeability was determined by sampling the basolateral solution at regular time intervals. […]

For the next data set, the system named is Caco-2 cell layers. In kind it is cell-based, human. The following applies: 3OC12-HSL 200 μM. The procedure: as §1, with “3:” for “1:”, “Caco-2” for “ARPE-19”, “absence (dashed line)” for “absence”, “presence (line)” for “presence”
Calu-3 cells obtained from American Type Culture Collection, USA were cultured using Dulbecco's Modified Eagle Medium (DMEM) supplemented with penicillin (100 U/mL), streptomycin (0.1 mg/mL), amphotericin (0.25 μg/mL), non-essential amino acids (NEM, 1%) and Fetal Bovine Serum (FBS, 10% v/v, Sigma-Aldrich, UK). The human-derived RPE cell line ARPE-19 was obtained from American Type Culture Collection. […]
as §2, §3

The test system of the next data set is Calu-3 cells. Nature of the data set: MTS assay of metabolic activity / cell viability. In kind it is cell-based, human. Conditions: 5 nM to 200 μM, 6 hours. (In general: Formazan colour is commonly taken as a measure of viable cells.)
For the next data set, the system named is Calu-3 cell layers. Kind of data set: FD4 permeability and TEER of polarised Calu-3 cell layers. In kind it is cell-based, human.
In another data set the test system is Calu-3. Kind of data set: Further in vitro Transwell studies: enhancing translocation of 4 kDa FITC-dextran. In kind it is cell-based, human. The procedure: Exemplary molecules (a)-(1) investigated in coarse dose-response by FD4 delivery in Transwell culture (Calu-3). Each molecule was screened at 5 nM, 1 μM, 200 μM levels.
Each compound was screened at 200 μM level.
Each molecule was screened at 5 nM, 1 μM, 200 μM levels.

In a further data set the test system is Calu-3 cell layer. Kind of data set: Delivery of siRNA across Calu-3 cell layer (Transwell). In kind it is cell-based, human. The following applies: 200 μM. The procedure: FIG. 10: Delivery of siRNA (19 bases) across Calu-3 cell layer is enhanced in the presence of 30C12 HSL (200 μM) assessed as recovered fraction from the basolateral chamber of a Transwell.

For data set [1], the system named is diabetic rat model with increased retinal permeability. Kind of data set: Topical eye administration in diabetic rat model with increased vascular permeability. The following applies: topical co-application vs Bevacizumab alone. In kind it is in vivo, Norway Brown rats.
Where [2] appears, read: doxorubicin 250 μg/ml, after 5 hours.

Description for Calu-3 cells: To assess 3OC12-HSL and C7 PQS molecules cytotoxicity on cell viability of Calu-3 cell layers and to monitor short-term cytotoxicity during experiments, Calu-3 cells were treated with 3OC12-HSL and C7 PQS, at concentrations 5 nM, 1 μM, 50 μM, 100 μM and 200 μM, for 6 hours. At the end of the treatment, cell viability (through measuring metabolic activity) of cultures was determined by chromogenic MTS assay.
The viability of Calu-3 cells was determined by a chromogenic MTS method based on the measuring of mitochondrial respiration, assessed by the reduction of 3-(4,5-dimethylthiazol-2-yl)-5-(3-carboxymethoxyphenyl)-2-(4-sulfophenyl)-2H-tetrazolium to formazan. Calu-3 cells were cultured in a 96-well plate (CellTiter 96® Aqueous, Promega) at a density of 10^4 cells per well and incubated at 37° C., 5% CO2 for 24 hours. After 24 hours, the medium was replaced with 100 μl of test compounds dissolved in HBSS and then cells were incubated for 6 hours. HBSS and Triton X-100 (0.1% v/v in HBSS) were used as the negative and positive controls respectively. Bathing solutions were then aspirated and cells washed with PBS. Then culture medium (100 μl at 37° C.) plus MTS reagent (20 μl) were added into each well and cells were incubated for 2 hours. Absorbance at 492 was measured using a Dynex absorbance microplate reader (Dynex Technologies, USA) and converted into a percentage metabolic rate.

Consider `CCCCCCCCCC(=O)CC(=O)N[C@H]1CCOC1=O` [Agent 3OC12-HSL, N-(3-oxododecanoyl) homoserine lactone], for which the “increase of bevacizumab permeability by 3OC12-HSL” value in the data set with ARPE-19 cell layers (bevacizumab 250 μg/ml, at 60 minutes of exposure) is 2.5 fold. Moreover, the figures for the “enhancement of doxorubicin transport by 3OC12-HSL” value with ARPE-19 cell layers (setting [2]) and in the data set with Caco-2 cell layers (setting [2]) were 6 fold and 19 fold, respectively. For the same compound, in the data set with Caco-2 cell layers (aflibercept 250 μg/ml), the “enhancement of aflibercept transport by 3OC12-HSL” value is 11 fold. Also, in the data set with Caco-2 cell layers (bevacizumab 250 μg/ml), the “enhancement of bevacizumab transport by 3OC12-HSL” value is recorded as 8 fold. The “cytotoxic effect on cell viability within epithelial layers” value in the data set on Calu-3 cells is given as “do not have an adverse cytotoxic effect”. In addition, in the data set on Calu-3 cell layers (200 μM (3OC12-HSL: 200 μM or 1 μM)), the “paracellular passage / flux of FD4 from apical to basolateral chamber” value is on record as “increased paracellular passage of FD4”. Besides, in the data set with Calu-3 cell layers (200 μM or 1 μM in 0.15% DMSO in HBSS, p<0.001), the “effect on TEER compared to vehicle only” value is given as “reduced TEER significantly”. The “time after which TEER started increasing / cell layer integrity began to recover” value in the data set with Calu-3 cell layers (during exposure) came out at 4 h. In addition, the “TEER after 7 hours” value in the data set on Calu-3 cell layers (recovery during exposure) was 520+/−20 Ω·cm^2. In the data set on Calu-3 cell layers (then continued increasing slowly for four hours), the “time at which flux of FD4 peaked” value is 30 min. Besides, the “Effective in enhancing translocation” value in the data set with Calu-3 was “Yes”. Also, in the data set with Calu-3 cell layer, the “delivery of siRNA (19 bases) across cell layer, recovered fraction from basolateral chamber” value is recorded as “enhanced”. The “delivery of Bevacizumab into the posterior chamber of rat eyes (confocal images)” value in data set [1] is given as “significantly enhance”.
